Test system: 429239-143-T-J1-PDC complex spheroid viability
Assay: Anticancer human tumor 429239-143-T-J1-PDC patient-derived small cell lung carcinoma cell line growth inhibition [POLQ]
Details: for IC50: curve of first compound; for viability, T/C: stronger effect = lower value
Description: Multicellular complex tumor spheroid response to Polymerase (POL) inhibitors (novobiocin, ART-558, RP6685) in combination with a variety of drugs and investigational agents in selected tumor cell lines
The POL inhibitors (novobiocin, ART-558, and RP6685) were evaluated both individually and in combination with standard of care and investigational anticancer small molecules within a complex spheroid model of solid tumors. . Complex spheroids include a stromal component modeled by human endothelial cells (HUVEC) and fibroblasts modeled by human mesenchymal stem cells (MSCs). The concentration ranges selected for each drug and investigational agent were based upon clinically achievable concentrations if the clinical Cmax of the agent was known.
Compounds. The drugs and investigational agents: novobiocin (NSC847541), ART-558 (NSC835418), RP-6685 (NSC848927), peposertib (NSC802822), ceralasertib (NSC780249), elimusertib (NSC800525), camonsertib (NSC841442), AZD-1390 (NSC803789), olaparib (NSC753686), talazoparib (NSC767125), rucaparib (NSC756644), sotorasib (NSC818433), MRTX-1133 (NSC836407), SN-38 (NSC673596), topotecan (NSC609699), epotoside (NSC141540), doxorubicin (NSC123127), gemcitabine (NSC613327), 5-fluorouracil (NSC19893), paclitaxel (NSC125973), vemurafenib (NSC761431), MSA-2 (NSC828583), SN-011 (NSC837082), adavosertib (NSC754352), prexasertib (NSC758257), carboplatin (NSC241240) and oxaliplatin (NSC266046), were obtained from the National Cancer Institute (NCI) Developmental Therapeutics Program Chemical Repository (21). The FDA-approved anticancer drug set is available from the Developmental Therapeutics Program at https://dtp.cancer.gov/organization/dscb/obtaining/. […] The stock solutions were prepared in dimethyl sulfoxide (DMSO, Sigma-Aldrich, St. Louis, MO, cat. D2650), except for the platinum compounds which were prepared in saline (Quality Biological, Gaithersburg, MD, cat. 114-055-101), at 800-fold the tested concentration and stored at -70 degrees C prior to their use. All drugs and investigational agents were tested over a range starting from a high concentration at or near the clinical Cmax and decreasing in half-log increments. If the clinical Cmax for an agent had not been determined, the highest concentration tested was 10 microM, except for SN-38, which was tested at a high concentration of 1 microM.
Cell Culture. All cells were maintained in an incubator at 37 degrees C and 5% CO2 with 95% humidity. The PDC lines were cultured according to standard operating procedures established by the NCI PDMR (https://pdmr.cancer.gov). Table 3 of the manuscript, lists the cell lines along with the number of the three cell types plated to form the mct-spheroids and media for tumor cell growth. After thawing, all PDC lines, except 997537-175-T-J1-PDC and 415267-285-R-J2-PDC, were cultured in Matrigel-coated flasks prepared with a working solution of 1X Ham's F-12 nutrient mix, without supplementation (Thermo Fisher Scientific, cat. 11765054), 100 U/mL penicillin-streptomycin (Thermo Fisher Scientific, cat. 15140122), and 2.5% Matrigel (Corning Inc., Corning, NY, cat. 354248) for the first three passages. The two PDC lines 997537-175-T-J1-PDC and 415267-285-R-J2-PDC were cultured on uncoated flasks. The 857933-349-R-J2-PDC line was cultured in 6C/Colon 1B media containing advanced DMEM/F-12 (Thermo Fisher Scientific, cat. 12634028), 10 mM HEPES (Thermo Fisher Scientific, cat. 15630080), 1X GlutaMAX supplement (Thermo Fisher Scientific, cat. 35050061), 0.1 mg/mL primocin (InvivoGen, San Diego, CA, cat. ant-pm-2), 10% defined fetal bovine serum, heat inactivated (HyClone Laboratories Inc., Logan, UT, cat. SH30070.03HI), 50% L-WRN conditioned media (ATCC, cat. CRL-3276), 1.25 mM N-Acetyl-L-cysteine (Sigma-Aldrich, cat. A9165), 10 mM nicotinamide (Sigma-Aldrich, cat. N0636), 1X B-27 supplement (Thermo Fisher Scientific, cat. 17504044), 1X N-2 supplement (Thermo Fisher Scientific, cat. […]

[1] = second compound 0.0316 µM, first compound 0.0316 µM
[2] = second compound 0.0316 µM, first compound 0.1 µM
[3] = second compound 0.0316 µM, first compound 0.316 µM
[4] = second compound 0.0316 µM, first compound 1 µM
[5] = second compound 0.1 µM, first compound 0.0316 µM
[6] = second compound 0.1 µM, first compound 0.1 µM
[7] = second compound 0.1 µM, first compound 0.316 µM
[8] = second compound 0.1 µM, first compound 1 µM
[9] = second compound 0.316 µM, first compound 0.0316 µM
[10] = second compound 0.316 µM, first compound 0.1 µM
[11] = second compound 0.316 µM, first compound 0.316 µM
[12] = second compound 0.316 µM, first compound 1 µM
[13] = second compound 1 µM, first compound 0.0316 µM
[14] = second compound 1 µM, first compound 0.1 µM
[15] = second compound 1 µM, first compound 0.316 µM
[16] = second compound 1 µM, first compound 1 µM
[17] = second compound 3.16 µM, first compound 0.0316 µM
[18] = second compound 3.16 µM, first compound 0.1 µM
[19] = second compound 3.16 µM, first compound 0.316 µM
[20] = second compound 3.16 µM, first compound 1 µM
[21] = second compound 10 µM, first compound 0.0316 µM
[22] = second compound 10 µM, first compound 0.1 µM
[23] = second compound 10 µM, first compound 0.316 µM
[24] = second compound 10 µM, first compound 1 µM
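Further: luminescence signal used as surrogate measure of viable cells; spheroids exposed to compounds for seven days before readout.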
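Wherever viability, T/C is given: 100% = DMSO vehicle control viability as luminescence relative to vehicle.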

SMILES: CC1COCCN1c1cc(C2(O)CC3CCC(C2)O3)c2cnn(-c3ccn[nH]3)c2n1 (centres undefined) + COC1C(OC(N)=O)C(O)C(Oc2ccc3c(O)c(NC(=O)c4ccc(O)c(CC=C(C)C)c4)c(=O)oc3c2C)OC1(C)C
- IC50 (second compound 0.0316 µM): 48.7 nM
- IC50 (second compound 0.1 µM): 63.6 nM
- IC50 (second compound 0.316 µM): 49 nM
- IC50 (second compound 1 µM): 65.9 nM
- IC50 (second compound 3.16 µM): 57.8 nM
- IC50 (second compound 10 µM): 43.2 nM
- viability, T/C [1]: 60.6%
- viability, T/C [2]: 32.4%
- viability, T/C [3]: 15.4%
- viability, T/C [4]: 9.3%
- viability, T/C (second compound 0.0316 µM, first compound 3.16 µM): 7.39%
- viability, T/C (second compound 0.0316 µM, first compound 10 µM): 6.59%
- viability, T/C [5]: 69.8%
- viability, T/C [6]: 37.4%
- viability, T/C [7]: 16%
- viability, T/C [8]: 9.73%
- viability, T/C (second compound 0.1 µM, first compound 3.16 µM): 7.67%
- viability, T/C (second compound 0.1 µM, first compound 10 µM): 5.38%
- viability, T/C [9]: 62.4%
- viability, T/C [10]: 28.4%
- viability, T/C [11]: 18.1%
- viability, T/C [12]: 9.94%
- viability, T/C (second compound 0.316 µM, first compound 3.16 µM): 6.92%
- viability, T/C (second compound 0.316 µM, first compound 10 µM): 5.8%
- viability, T/C [13]: 67.5%
- viability, T/C [14]: 39.9%
- viability, T/C [15]: 19.2%
- viability, T/C [16]: 7.99%
- viability, T/C (second compound 1 µM, first compound 3.16 µM): 7.48%
- viability, T/C (second compound 1 µM, first compound 10 µM): 5.25%
- viability, T/C [17]: 69.7%
- viability, T/C [18]: 31.6%
- viability, T/C [19]: 17.1%
- viability, T/C [20]: 8.72%
- viability, T/C (second compound 3.16 µM, first compound 3.16 µM): 6.53%
- viability, T/C (second compound 3.16 µM, first compound 10 µM): 5.31%
- viability, T/C [21]: 56.7%
- viability, T/C [22]: 32%
- viability, T/C [23]: 18.1%
- viability, T/C [24]: 8.41%
- viability, T/C (second compound 10 µM, first compound 3.16 µM): 9.41%
- viability, T/C (second compound 10 µM, first compound 10 µM): 5.38%

SMILES: COc1cccc(OCCCN)c1-c1cc(Nc2cnc(C#N)cn2)n[nH]1 + Cc1cccc(N(C)C(=O)C2C(O)CCN2c2nc(C)cc(C(F)(F)F)c2C#N)c1
- IC50 (second compound 0.0316 µM): 377 nM
- IC50 (second compound 0.1 µM): 339 nM
- IC50 (second compound 0.316 µM): 248 nM
- IC50 (second compound 1 µM): 256 nM
- IC50 (second compound 3.16 µM): 273 nM
- IC50 (second compound 10 µM): 227 nM
- viability, T/C (second compound 0.0316 µM, first compound 0.00316 µM): 101%
- viability, T/C (second compound 0.0316 µM, first compound 0.01 µM): 110%
- viability, T/C [1]: 87.7%
- viability, T/C [2]: 73.1%
- viability, T/C [3]: 52.7%
- viability, T/C [4]: 39.3%
- viability, T/C (second compound 0.1 µM, first compound 0.00316 µM): 101%
- viability, T/C (second compound 0.1 µM, first compound 0.01 µM): 106%
- viability, T/C [5]: 92.9%
- viability, T/C [6]: 72%
- viability, T/C [7]: 52.7%
- viability, T/C [8]: 36.7%
- viability, T/C (second compound 0.316 µM, first compound 0.00316 µM): 106%
- viability, T/C (second compound 0.316 µM, first compound 0.01 µM): 108%
- viability, T/C [9]: 86.4%
- viability, T/C [10]: 67.2%
- viability, T/C [11]: 46.6%
- viability, T/C [12]: 32%
- viability, T/C (second compound 1 µM, first compound 0.00316 µM): 108%
- viability, T/C (second compound 1 µM, first compound 0.01 µM): 105%
- viability, T/C [13]: 90.8%
- viability, T/C [14]: 68.1%
- viability, T/C [15]: 46.5%
- viability, T/C [16]: 33.1%
- viability, T/C (second compound 3.16 µM, first compound 0.00316 µM): 117%
- viability, T/C (second compound 3.16 µM, first compound 0.01 µM): 108%
- viability, T/C [17]: 93.8%
- viability, T/C [18]: 65.4%
- viability, T/C [19]: 49.8%
- viability, T/C [20]: 34.9%
- viability, T/C (second compound 10 µM, first compound 0.00316 µM): 118%
- viability, T/C (second compound 10 µM, first compound 0.01 µM): 92.1%
- viability, T/C [21]: 92.1%
- viability, T/C [22]: 66.4%
- viability, T/C [23]: 39.3%
- viability, T/C [24]: 27.7%

From PubChem BioAssay AID1963845 (Molecular Pharmacology Branch, DTP, NCI, 2024)
